The target of one assay is T1, human CYP11B2 (Homo sapiens, UniProt P19099).
T1 construct: expressed in transfected cells
T1 sequence (P19099 25-503): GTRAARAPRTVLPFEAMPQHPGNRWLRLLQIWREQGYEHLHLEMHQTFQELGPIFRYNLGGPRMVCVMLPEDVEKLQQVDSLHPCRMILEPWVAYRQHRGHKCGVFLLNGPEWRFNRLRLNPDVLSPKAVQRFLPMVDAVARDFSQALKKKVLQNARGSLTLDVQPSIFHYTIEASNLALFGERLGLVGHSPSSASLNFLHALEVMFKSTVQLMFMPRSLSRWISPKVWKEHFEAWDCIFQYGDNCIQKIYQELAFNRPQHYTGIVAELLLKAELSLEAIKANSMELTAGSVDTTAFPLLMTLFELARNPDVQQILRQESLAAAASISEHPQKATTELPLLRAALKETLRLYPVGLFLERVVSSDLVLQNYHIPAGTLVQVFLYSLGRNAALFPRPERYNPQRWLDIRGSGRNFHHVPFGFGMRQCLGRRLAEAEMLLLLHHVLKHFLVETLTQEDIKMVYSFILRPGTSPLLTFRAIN
Briefly: G-402 cellular enzyme assay, human CYP11B2 (aldosterone release, HTRF). The class given is cell-based. To be noted: G-402 cells, 1 μM Deoxycorticosterone. The essentials:
(§1)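 Steroid output from supernatants, quantified by HTRF as cortisol for CYP11B1 or aldosterone for CYP11B2, gave EC50 values by least-squares 4-parameter MMF fitting against inhibitor concentration. Stably transfected G-402 cells carrying the human enzyme received 1 μM deoxycortisol or 1 μM deoxycorticosterone respectively, 16 h, DMEM/F12 with 2.5% charcoal-stripped FCS.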
For orientation: Time-resolved FRET reads energy transfer from a long-lived donor to a nearby acceptor.

In another assay the target is T2, human CYP11B1 (Homo sapiens, UniProt P15538).
T2 construct: expressed in transfected cells
T2 sequence (P15538 25-503): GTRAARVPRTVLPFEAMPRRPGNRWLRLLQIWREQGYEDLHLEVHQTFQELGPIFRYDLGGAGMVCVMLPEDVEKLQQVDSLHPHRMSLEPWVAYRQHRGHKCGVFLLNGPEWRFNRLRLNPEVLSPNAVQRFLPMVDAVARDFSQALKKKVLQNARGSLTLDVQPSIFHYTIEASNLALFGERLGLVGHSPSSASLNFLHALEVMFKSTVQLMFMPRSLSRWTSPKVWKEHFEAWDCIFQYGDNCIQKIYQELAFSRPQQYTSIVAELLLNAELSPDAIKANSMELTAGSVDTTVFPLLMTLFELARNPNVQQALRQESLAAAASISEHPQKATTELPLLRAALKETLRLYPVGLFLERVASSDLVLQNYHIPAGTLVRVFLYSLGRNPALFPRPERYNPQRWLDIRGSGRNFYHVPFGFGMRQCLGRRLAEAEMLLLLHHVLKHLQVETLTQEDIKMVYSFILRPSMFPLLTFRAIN
Kind of assay: G-402 cellular enzyme assay, human CYP11B1 (cortisol release, HTRF). The class given is cell-based. To be noted: G-402 cells, 1 μM Deoxycortisol. The procedure, abridged:
as §1

These results are taken from patent publication US9133158B2, “Bicyclic dihydroisoquinoline-1-one derivatives” (Hoffmann-La Roche Inc., priority 2011, dated 2015).

For `CC[C@H]1c2cc(Cl)ccc2C(=O)N1c1cncc2c1CC[C@H]2NS(C)(=O)=O` (single isomer, unassigned) [Example 368, N-[(R or S)-4-((S or R)-5-Chloro-3-ethyl-1-oxo-1,3-dihydro-isoindol-2-yl)-6,7-dihydro-5H-[2]pyrindin-7-yl]-methanesulfonamide], the EC50 on human CYP11B2 amounted to 12.1 nM; on human CYP11B1 it was 723 nM.
For `O=C1c2ccc(Cl)cc2CCN1c1cncc(CN2CCC(F)(F)CC2)c1` [Example 168, 6-Chloro-2-[5-(4,4-difluoro-piperidin-1-ylmethyl)-pyridin-3-yl]-3,4-dihydro-2H-isoquinolin-1-one], in that order: 3.4 nM and 47.5 nM.
Consider `CCS(=O)(=O)NC1CCCc2c1cncc2N1Cc2cc(Cl)ccc2C1=O` (racemic) [Example 315, Ethanesulfonic acid [4-(5-chloro-1-oxo-1,3-dihydro-isoindol-2-yl)-5,6,7,8-tetrahydro-isoquinolin-8-yl]-amide], for which the EC50 at human CYP11B2 was 1050 nM; at human CYP11B1, 31000 nM.
Turning to `Cc1c(-c2cncc(N3CCc4cc(Cl)ccc4C3=O)c2)ncn1C` [Example 417, 6-Chloro-2-[5-(1,5-dimethyl-1H-imidazol-4-yl)-pyridin-3-yl]-3,4-dihydro-2H-isoquinolin-1-one], the EC50 at human CYP11B2 worked out at 224 nM; on human CYP11B1 it was 9090 nM.
In the same order, the values of `Cc1cccnc1C(=O)NCc1cncc(N2C(=O)c3ccc(Cl)cc3C2(C)C)c1` [Example 430, 3-Methyl-pyridine-2-carboxylic acid [5-(6-chloro-1,1-dimethyl-3-oxo-1,3-dihydro-isoindol-2-yl)-pyridin-3-ylmethyl]-amide] are 6.9 nM and 737 nM.
As to `CCC(=O)NC1CCCc2c1cncc2N1C(=O)c2ccc(Cl)cc2C1(C)C` (racemic) [Example 468, N-[4-(6-Chloro-1,1-dimethyl-3-oxo-1,3-dihydro-isoindol-2-yl)-5,6,7,8-tetrahydro-isoquinolin-8-yl]-propionamide], the EC50 at human CYP11B2 was 52.8 nM; at human CYP11B1, 2660 nM.
For `CC(=O)N1CCC(c2cncc(N3C(=O)c4ccc(Cl)cc4C3(C)C)c2)C1` (stereo not drawn) [Example 460, 2-[5-(1-Acetyl-pyrrolidin-3-yl)-pyridin-3-yl]-5-chloro-3,3-dimethyl-2,3-dihydro-isoindol-1-one], in that order: 12.3 nM and 516 nM.
In the same order, the values of `O=C1c2ccc(Cl)cc2CCN1c1cncc(CNc2cc[nH]n2)c1` [Example 262, 6-Chloro-2-{5-[(1H-pyrazol-3-ylamino)-methyl]-pyridin-3-yl}-3,4-dihydro-2H-isoquinolin-1-one] are 14.1 nM and 300 nM.
Turning to `CC(C)c1nccn1Cc1cncc(N2Cc3cc(Cl)ccc3C2=O)c1` [Example 109, 5-Chloro-2-[5-(2-isopropyl-imidazol-1-ylmethyl)-pyridin-3-yl]-2,3-dihydro-isoindol-1-one], the results for the EC50 at human CYP11B2 and at human CYP11B1 were 229 nM and 1350 nM, respectively.
For `O=C1c2ccc(Cl)cc2CCN1c1cncc(COC2CCC2)c1` [Example 203, 6-Chloro-2-(5-cyclobutoxymethyl-pyridin-3-yl)-3,4-dihydro-2H-isoquinolin-1-one], in that order: 22.4 nM and 212 nM.
In the same order, the values of `O=C1c2ccc(Cl)cc2CCN1c1cncc(Cc2ccc(Cl)c(Cl)c2)c1` [Example 216, 6-Chloro-2-[5-(3,4-dichloro-benzyl)-pyridin-3-yl]-3,4-dihydro-2H-isoquinolin-1-one] are 38.1 nM and 364 nM.
For `O=C1c2ccc(Cl)cc2CCN1c1cncc(Cc2cc(Cl)ccc2Cl)c1` [Example 217, 6-Chloro-2-[5-(2,5-dichloro-benzyl)-pyridin-3-yl]-3,4-dihydro-2H-isoquinolin-1-one], in that order: 92 nM and 803 nM.
In the case of `O=C1c2ccc(Cl)cc2CCN1c1cncc(Cc2cccc(F)c2F)c1` [Example 210], the results for the 50% effective concentration (EC50) on human CYP11B2 and on human CYP11B1 were 18.6 nM and 130 nM, respectively.
In the same order, the values of `O=C1c2ccc(Cl)cc2CCN1c1cncc2c([N+](=O)[O-])cccc12` [Example 287, 6-Chloro-8′-nitro-3,4-dihydro-[2,4′]biisoquinolinyl-1-one] are 555 nM and 6410 nM.
For `CCC(=O)N[C@H]1CCc2c1cncc2N1C(=O)c2ccc(Cl)cc2[C@H]1C` (single isomer, unassigned) [Example 377, N-[(S or R)-4-((R or S)-5-Chloro-3-methyl-1-oxo-1,3-dihydro-isoindol-2-yl)-6,7-dihydro-5H-[2]pyrindin-7-yl]-propionamide], in that order: 3.4 nM and 448 nM.
In the same order, the values of `CC(=O)N[C@@H]1CCCc2c1cncc2N1C(=O)c2ccc(Cl)cc2[C@H]1C` (single isomer, unassigned) [Example 364, N-[(R or S)-4-((R or S)-5-Chloro-3-methyl-1-oxo-1,3-dihydro-isoindol-2-yl)-5,6,7,8-tetrahydro-isoquinolin-8-yl]-acetamide] are 130 nM and 5570 nM.
Take `CC1(C)c2cc(Cl)ccc2C(=O)N1c1cncc(CN2CCOC2=O)c1` [Example 412, 5-Chloro-3,3-dimethyl-2-[5-(2-oxo-oxazolidin-3-ylmethyl)-pyridin-3-yl]-2,3-dihydro-isoindol-1-one]: the EC50 is 46.6 nM on human CYP11B2 and 1670 nM at human CYP11B1.
Take `COc1cncc(N2C(=O)c3ccc(Cl)cc3CC2C)c1` (stereo not drawn) [Example 85, 6-Chloro-2-(5-methoxy-pyridin-3-yl)-3-methyl-3,4-dihydro-2H-isoquinolin-1-one]: the EC50 on human CYP11B2 is 59.6 nM; at human CYP11B1, 2860 nM.
In the same order, the values of `O=C1c2ccc(Cl)cc2CCN1c1cccnn1` [Example 52, 6-Chloro-2-pyridazin-3-yl-3,4-dihydro-2H-isoquinolin-1-one] are 382 nM and 2460 nM.
For the compound `Cn1ccc2cncc(N3CCc4cc(Cl)ccc4C3=O)c21` [Example 65, 6-Chloro-2-(1-methyl-1H-pyrrolo[3,2-c]pyridin-7-yl)-3,4-dihydro-2H-isoquinolin-1-one], the EC50 is 97.3 nM on human CYP11B2 and 2350 nM at human CYP11B1.
As to `CC(=O)N1CCC(Oc2cncc(N3C(=O)c4ccc(Cl)cc4C3(C)C)c2)C1` (stereo not drawn) [Example 441, 2-[5-(1-Acetyl-pyrrolidin-3-yloxy)-pyridin-3-yl]-5-chloro-3,3-dimethyl-2,3-dihydro-isoindol-1-one], the EC50 at human CYP11B2 was 16.6 nM; at human CYP11B1, 988 nM.
In the same order, the values of `CCS(=O)(=O)NCc1cncc(N2C(=O)c3ccc(C#N)cc3C2(C)C)c1` [Example 389, Ethanesulfonic acid [5-(6-cyano-1,1-dimethyl-3-oxo-1,3-dihydro-isoindol-2-yl)-pyridin-3-ylmethyl]-amide] are 115 nM and 2950 nM.
For `CC1(C)c2cc(Cl)ccc2C(=O)N1c1cncc(CNS(C)(=O)=O)c1` [Example 391, N-[5-(6-Chloro-1,1-dimethyl-3-oxo-1,3-dihydro-isoindol-2-yl)-pyridin-3-ylmethyl]-methane-sulfonamide], in that order: 29.7 nM and 1450 nM.
For `CC(O)c1cncc(N2C(=O)c3ccc(Cl)cc3C2C)c1` (stereo not drawn) [Example 122, 5-Chloro-2-[5-(1-hydroxy-ethyl)-pyridin-3-yl]-3-methyl-2,3-dihydro-isoindol-1-one], in that order: 42.3 nM and 180 nM.
For the compound `O=C1c2ccc(Cl)cc2C2(CC2)N1c1cncc(OC(F)F)c1` [Example 291, 6′-Chloro-2′-[5-(difluoromethoxy)pyridin-3-yl]spiro[cyclo-propane-1,1′-isoindol]-3′(2′H)-one], the EC50 at human CYP11B2 was 3.2 nM; at human CYP11B1, 122 nM.
Consider `O=C1c2ccc(Cl)cc2CCN1c1cncc(-c2ccc(Cl)c(F)c2)c1` [Example 240, 6-Chloro-2-[5-(4-chloro-3-fluoro-phenyl)-pyridin-3-yl]-3,4-dihydro-2H-isoquinolin-1-one], for which the EC50 at human CYP11B2 worked out at 115 nM; at human CYP11B1 it was 3270 nM.
As to `Cn1ccnc1-c1cncc(N2CCc3cc(Cl)ccc3C2=O)c1` [Example 244, 6-Chloro-2-[5-(1-methyl-1H-imidazol-2-yl)-pyridin-3-yl]-3,4-dihydro-2H-isoquinolin-1-one], the EC50 at human CYP11B2 was determined as 1860 nM; at human CYP11B1 it was 4690 nM.

One may read the EC50 as the concentration that produces a half-maximal response. A high value points to a need for much substance.
